Experimental data from PubChem BioAssay AID1963978 (Molecular Pharmacology Branch, DTP, NCI, 2024).

Test system: 616215-338-R-J1-PDC spheroids with HUVEC/MSC, viability
Experiment: Anticancer human tumor 616215-338-R-J1-PDC patient-derived colon adenocarcinoma cell line growth inhibition [PI3K]
Settings: for IC50: curve of first compound; for viability, T/C: stronger effect = lower value
In short: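 Tumor cells grown as multi-cell spheroids with HUVEC endothelial cells and MSC fibroblast-like stroma were treated with targeted agents combined with inavolisib, alpelisib, duvelisib or copanlisib. Doses fell in half-log steps from near clinical Cmax, else from 10 microM. Viability was measured.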

[1] = second compound 0.00316 µM, first compound 0.0316 µM
[2] = second compound 0.00316 µM, first compound 0.1 µM
[3] = second compound 0.01 µM, first compound 0.0316 µM
[4] = second compound 0.01 µM, first compound 0.1 µM
[5] = second compound 0.0316 µM, first compound 0.0316 µM
[6] = second compound 0.0316 µM, first compound 0.1 µM
[7] = second compound 0.1 µM, first compound 0.0316 µM
[8] = second compound 0.1 µM, first compound 0.1 µM
[9] = second compound 0.316 µM, first compound 0.0316 µM
[10] = second compound 0.316 µM, first compound 0.1 µM
[11] = second compound 1 µM, first compound 0.0316 µM
[12] = second compound 1 µM, first compound 0.1 µM
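Further: spheroids exposed to agents for seven days before the viability read.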

In the case of `CC(C)n1nc(-c2ccc3oc(N)nc3c2)c2c(N)ncnc21` + COc1c(OCCCN2CCOCC2)ccc2c3n(c(=NC(=O)c4cnc(N)nc4)nc12)CCN3, the IC50 (second compound 0.00316 µM) is reported as > 100 nM, the IC50 (second compound 0.01 µM) is reported as > 100 nM and the IC50 (second compound 0.0316 µM) is reported as 80.3 nM. For the same compound, the IC50 (second compound 0.1 µM) was 26.2 nM, the IC50 (second compound 0.316 µM) was < 0.316 nM and the IC50 (second compound 1 µM) was < 0.316 nM. For the same compound, the viability, T/C (second compound 0.00316 µM, first compound 0.000316 µM) was 104%, the viability, T/C (second compound 0.00316 µM, first compound 0.001 µM) was 109% and the viability, T/C (second compound 0.00316 µM, first compound 0.00316 µM) was 97.4%. For the same compound, the viability, T/C (second compound 0.00316 µM, first compound 0.01 µM) was 105%, the viability, T/C [1] was 116% and the viability, T/C [2] was 65.6%. It also gave a viability, T/C (second compound 0.01 µM, first compound 0.000316 µM) of 104%, a viability, T/C (second compound 0.01 µM, first compound 0.001 µM) of 100% and a viability, T/C (second compound 0.01 µM, first compound 0.00316 µM) of 103%. It also gave a viability, T/C (second compound 0.01 µM, first compound 0.01 µM) of 108%, a viability, T/C [3] of 122% and a viability, T/C [4] of 67.2%. The viability, T/C (second compound 0.0316 µM, first compound 0.000316 µM) was 106%, the viability, T/C (second compound 0.0316 µM, first compound 0.001 µM) was 99.2% and the viability, T/C (second compound 0.0316 µM, first compound 0.00316 µM) was 117%. It also gave a viability, T/C (second compound 0.0316 µM, first compound 0.01 µM) of 117%, a viability, T/C [5] of 97.3% and a viability, T/C [6] of 39%. For the same compound, the viability, T/C (second compound 0.1 µM, first compound 0.000316 µM) was 96.2%, the viability, T/C (second compound 0.1 µM, first compound 0.001 µM) was 102% and the viability, T/C (second compound 0.1 µM, first compound 0.00316 µM) was 88.9%. It also gave a viability, T/C (second compound 0.1 µM, first compound 0.01 µM) of 68.7%, a viability, T/C [7] of 47.7% and a viability, T/C [8] of 30.1%. The viability, T/C (second compound 0.316 µM, first compound 0.000316 µM) was 37.9%, the viability, T/C (second compound 0.316 µM, first compound 0.001 µM) was 42.1% and the viability, T/C (second compound 0.316 µM, first compound 0.00316 µM) was 34.9%. For the same compound, the viability, T/C (second compound 0.316 µM, first compound 0.01 µM) was 45.2%, the viability, T/C [9] was 35.5% and the viability, T/C [10] was 22.1%. The viability, T/C (second compound 1 µM, first compound 0.000316 µM) was 24.3%, the viability, T/C (second compound 1 µM, first compound 0.001 µM) was 29.1% and the viability, T/C (second compound 1 µM, first compound 0.00316 µM) was 25.1%. The viability, T/C (second compound 1 µM, first compound 0.01 µM) was 27.8%, the viability, T/C [11] was 30.1% and the viability, T/C [12] was 13.2%.

For `CC1(C)CCC(CN2CCN(c3ccc(C(=O)NS(=O)(=O)c4ccc(NCC5CCOCC5)c([N+](=O)[O-])c4)c(Oc4cnc5[nH]ccc5c4)c3)CC2)=C(c2ccc(Cl)cc2)C1` + COc1c(OCCCN2CCOCC2)ccc2c3n(c(=NC(=O)c4cnc(N)nc4)nc12)CCN3, the IC50 (second compound 0.00316 µM) was > 10000 nM, the IC50 (second compound 0.01 µM) was > 10000 nM and the IC50 (second compound 0.0316 µM) was > 10000 nM. The IC50 (second compound 0.1 µM) was > 10000 nM, the IC50 (second compound 0.316 µM) was < 31.6 nM and the IC50 (second compound 1 µM) was < 31.6 nM. It also gave a viability, T/C [1] of 94%, a viability, T/C [2] of 103% and a viability, T/C (second compound 0.00316 µM, first compound 0.316 µM) of 109%. For the same compound, the viability, T/C (second compound 0.00316 µM, first compound 1 µM) was 99.7%, the viability, T/C (second compound 0.00316 µM, first compound 3.16 µM) was 88.7% and the viability, T/C (second compound 0.00316 µM, first compound 10 µM) was 95.2%. For the same compound, the viability, T/C [3] was 84.7%, the viability, T/C [4] was 95.1% and the viability, T/C (second compound 0.01 µM, first compound 0.316 µM) was 98.2%. For the same compound, the viability, T/C (second compound 0.01 µM, first compound 1 µM) was 98.7%, the viability, T/C (second compound 0.01 µM, first compound 3.16 µM) was 84.2% and the viability, T/C (second compound 0.01 µM, first compound 10 µM) was 96.8%. It also gave a viability, T/C [5] of 96.8%, a viability, T/C [6] of 99.4% and a viability, T/C (second compound 0.0316 µM, first compound 0.316 µM) of 100%. For the same compound, the viability, T/C (second compound 0.0316 µM, first compound 1 µM) was 102%, the viability, T/C (second compound 0.0316 µM, first compound 3.16 µM) was 93.1% and the viability, T/C (second compound 0.0316 µM, first compound 10 µM) was 109%. It also gave a viability, T/C [7] of 96.1%, a viability, T/C [8] of 93.6% and a viability, T/C (second compound 0.1 µM, first compound 0.316 µM) of 107%. The viability, T/C (second compound 0.1 µM, first compound 1 µM) was 87.8%, the viability, T/C (second compound 0.1 µM, first compound 3.16 µM) was 83% and the viability, T/C (second compound 0.1 µM, first compound 10 µM) was 95.2%. The viability, T/C [9] was 47.4%, the viability, T/C [10] was 41.2% and the viability, T/C (second compound 0.316 µM, first compound 0.316 µM) was 45.5%. For the same compound, the viability, T/C (second compound 0.316 µM, first compound 1 µM) was 42.5%, the viability, T/C (second compound 0.316 µM, first compound 3.16 µM) was 27.6% and the viability, T/C (second compound 0.316 µM, first compound 10 µM) was 33.2%. It also gave a viability, T/C [11] of 24.3%, a viability, T/C [12] of 24.4% and a viability, T/C (second compound 1 µM, first compound 0.316 µM) of 25.5%. It also gave a viability, T/C (second compound 1 µM, first compound 1 µM) of 21%, a viability, T/C (second compound 1 µM, first compound 3.16 µM) of 13.2% and a viability, T/C (second compound 1 µM, first compound 10 µM) of 30%.
